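Five concentrations, 48 hours, 96-well plates. TGI: concentration producing complete growth inhibition.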
Legend:
Experiment in all cases: DTP human tumour cell line panel, 48 h
[1] = system: SR leukemia
[2] = system: HCT-15 colon
[3] = system: OVCAR-4 ovarian
[4] = system: MDA-MB-435
[5] = system: KM12 colon
[6] = system: SNB-19 CNS
[7] = system: TK-10 renal
[8] = system: OVCAR-3 ovarian
[9] = system: UACC-257 melanoma
[10] = system: MALME-3M melanoma
[11] = system: RXF 393 renal
[12] = system: IGROV1 ovarian
[13] = system: HT29 colon
[14] = system: T-47D breast
[15] = system: HCC-2998 colon
[16] = system: SW-620 colon
[17] = system: ACHN renal
[18] = system: OVCAR-5 ovarian
[19] = system: SK-OV-3 ovarian
[20] = system: BT-549 breast
[21] = system: U251 CNS
[22] = system: 786-0 renal
[23] = system: HS 578T breast
[24] = system: NCI-H226 lung
[25] = system: M14 melanoma
[26] = system: HCT-116 colon
[27] = system: RPMI-8226 leukemia
[28] = system: SK-MEL-5 melanoma
[29] = system: LOX IMVI melanoma
[30] = system: A549 NSCLC
[31] = system: OVCAR-8 ovarian
[32] = system: MDA-N
[33] = system: CCRF-CEM leukemia
[34] = system: NCI-H522 lung
[35] = system: NCI-H23 lung
[36] = system: K-562 leukemia
[37] = system: CAKI-1 renal
[38] = system: SF-268 CNS
[39] = system: MDA-MB-231 breast
[40] = system: SK-MEL-28 melanoma
[41] = system: NCI/ADR-RES ovarian
[42] = system: NCI-H460 lung
[43] = system: HOP-92 NSCLC
[44] = system: SF-295 CNS
[45] = system: MOLT-4 leukemia
[46] = system: PC-3 prostate
[47] = system: UO-31 renal
[48] = system: SF-539 CNS
[49] = system: SN12C renal
[50] = system: UACC-62 melanoma
[51] = system: HOP-62 NSCLC
[52] = system: SNB-75 CNS
[53] = system: MCF7 breast
[54] = system: EKVX NSCLC
[55] = system: COLO 205 colon
[56] = system: DU-145 prostate
[57] = system: A498 renal
[58] = system: SK-MEL-2 melanoma
[59] = system: HL-60(TB) leukemia

SMILES: CC(/C=N/NC1=NCCCCN1)=N\NC1=NCCCCN1
- TGI [1]: > 100 µM
- TGI [2]: > 100 µM
- TGI [3]: > 100 µM
- TGI [4]: > 100 µM
- TGI [5]: > 100 µM
- TGI [6]: > 100 µM
- TGI [7]: > 100 µM
- TGI [8]: > 100 µM
- TGI [9]: > 100 µM
- TGI [10]: 84 µM
- TGI [11]: > 100 µM
- TGI [12]: > 100 µM
- TGI [13]: > 100 µM
- TGI [14]: > 100 µM
- TGI [15]: > 100 µM
- TGI [16]: > 100 µM
- TGI [17]: > 100 µM
- TGI [18]: > 100 µM
- TGI [19]: > 100 µM
- TGI [20]: > 100 µM
- TGI [21]: > 100 µM
- TGI [22]: > 100 µM
- TGI [23]: > 100 µM
- TGI [24]: > 100 µM
- TGI [25]: 38.7 µM
- TGI [26]: > 100 µM
- TGI [27]: > 100 µM
- TGI [28]: > 100 µM
- TGI [29]: > 100 µM
- TGI [30]: > 100 µM
- TGI [31]: > 100 µM
- TGI [32]: > 100 µM
- TGI [33]: > 100 µM
- TGI [34]: > 100 µM
- TGI [35]: > 100 µM
- TGI [36]: > 100 µM
- TGI [37]: > 100 µM
- TGI [38]: > 100 µM
- TGI [39]: > 100 µM
- TGI [40]: > 100 µM
- TGI [41]: > 100 µM
- TGI [42]: > 100 µM
- TGI [43]: > 100 µM
- TGI [44]: > 100 µM
- TGI [45]: > 100 µM
- TGI [46]: > 100 µM
- TGI [47]: > 100 µM
- TGI [48]: > 100 µM
- TGI [49]: > 100 µM
- TGI [50]: > 100 µM
- TGI [51]: > 100 µM
- TGI [52]: > 100 µM
- TGI [53]: > 100 µM
- TGI [54]: > 100 µM
- TGI [55]: 57 µM

SMILES: O=C(c1ccc(Cl)cc1)N1N=C(c2ccc(Cl)cc2)CC1(O)c1cc(F)c(Cl)cc1Cl (stereo unspecified)
- TGI [2]: > 100 µM
- TGI [3]: 51.5 µM
- TGI [4]: 39.5 µM
- TGI [5]: 21.7 µM
- TGI [6]: > 100 µM
- TGI [7]: > 100 µM
- TGI [8]: 55.6 µM
- TGI [9]: > 100 µM
- TGI [10]: > 100 µM
- TGI [11]: > 100 µM
- TGI [12]: > 100 µM
- TGI [13]: 72.5 µM
- TGI [14]: > 100 µM
- TGI [15]: 47.1 µM
- TGI [16]: > 100 µM
- TGI [17]: 62.2 µM
- TGI [18]: > 100 µM
- TGI [19]: > 100 µM
- TGI [20]: > 100 µM
- TGI [21]: 37.3 µM
- TGI [22]: > 100 µM
- TGI [23]: > 100 µM
- TGI [24]: > 100 µM
- TGI [25]: 78.3 µM
- TGI [26]: 26.4 µM
- TGI [27]: 40.3 µM
- TGI [56]: > 100 µM
- TGI [28]: > 100 µM
- TGI [29]: 43.3 µM
- TGI [30]: > 100 µM
- TGI [31]: > 100 µM
- TGI [32]: 28.5 µM
- TGI [33]: > 100 µM
- TGI [34]: > 100 µM
- TGI [57]: 58.6 µM
- TGI [35]: 73 µM
- TGI [36]: > 100 µM
- TGI [37]: 39.6 µM
- TGI [38]: > 100 µM
- TGI [39]: > 100 µM
- TGI [40]: > 100 µM
- TGI [41]: > 100 µM
- TGI [58]: 39 µM
- TGI [42]: > 100 µM
- TGI [43]: 51.3 µM
- TGI [44]: > 100 µM
- TGI [45]: > 100 µM
- TGI [46]: > 100 µM
- TGI [59]: 87 µM
- TGI [47]: 22.2 µM
- TGI [48]: > 100 µM
- TGI [49]: 73.4 µM
- TGI [50]: 63.3 µM
- TGI [51]: 76.9 µM
- TGI [52]: 44.5 µM
- TGI [53]: > 100 µM
- TGI [54]: 59.3 µM
- TGI [55]: 48.8 µM

SMILES: O=C1c2ccccc2C(=O)N1C(=S)c1ccccc1
- TGI [1]: > 100 µM
- TGI [2]: > 100 µM
- TGI [3]: > 100 µM
- TGI [4]: > 100 µM
- TGI [5]: > 100 µM
- TGI [6]: > 100 µM
- TGI [7]: > 100 µM
- TGI [8]: > 100 µM
- TGI [9]: > 100 µM
- TGI [10]: > 100 µM
- TGI [11]: > 100 µM
- TGI [12]: > 100 µM
- TGI [13]: > 100 µM
- TGI [14]: > 100 µM
- TGI [15]: > 100 µM
- TGI [16]: > 100 µM
- TGI [17]: > 100 µM
- TGI [18]: > 100 µM
- TGI [19]: > 100 µM
- TGI [20]: > 100 µM
- TGI [21]: > 100 µM
- TGI [22]: > 100 µM
- TGI [23]: > 100 µM
- TGI [24]: > 100 µM
- TGI [25]: > 100 µM
- TGI [26]: > 100 µM
- TGI [27]: > 100 µM
- TGI [56]: > 100 µM
- TGI [28]: > 100 µM
- TGI [29]: > 100 µM
- TGI [30]: > 100 µM
- TGI [31]: > 100 µM
- TGI [32]: > 100 µM
- TGI [33]: > 100 µM
- TGI [34]: > 100 µM
- TGI [35]: > 100 µM
- TGI [36]: > 100 µM
- TGI [37]: > 100 µM
- TGI [38]: > 100 µM
- TGI [39]: > 100 µM
- TGI [40]: > 100 µM
- TGI [41]: > 100 µM
- TGI [58]: > 100 µM
- TGI [42]: > 100 µM
- TGI [43]: > 100 µM
- TGI [44]: > 100 µM
- TGI [45]: > 100 µM
- TGI [46]: > 100 µM
- TGI [59]: > 100 µM
- TGI [47]: > 100 µM
- TGI [48]: > 100 µM
- TGI [49]: > 100 µM
- TGI [50]: > 100 µM
- TGI [51]: > 100 µM
- TGI [52]: > 100 µM
- TGI [53]: > 100 µM
- TGI [54]: > 100 µM
- TGI [55]: > 100 µM
